Measurements from publication PMC11783601, “Analogue-Sensitive Inhibition of Histone Demethylases Uncovers Member-Specific Function in Ribosomal Protein Synthesis” (Journal of the American Chemical Society, 2025).

Target: T1, asKDM4A (HA-tagged F185A) in HEK293T cells (Homo sapiens, UniProt O75164, F185A)
T1 construct: we generated the F185A mutation in full-length KDM4A carrying all of the functional domains; host or cells: HEK293T
T1 sequence (O75164 1-1064 F185A): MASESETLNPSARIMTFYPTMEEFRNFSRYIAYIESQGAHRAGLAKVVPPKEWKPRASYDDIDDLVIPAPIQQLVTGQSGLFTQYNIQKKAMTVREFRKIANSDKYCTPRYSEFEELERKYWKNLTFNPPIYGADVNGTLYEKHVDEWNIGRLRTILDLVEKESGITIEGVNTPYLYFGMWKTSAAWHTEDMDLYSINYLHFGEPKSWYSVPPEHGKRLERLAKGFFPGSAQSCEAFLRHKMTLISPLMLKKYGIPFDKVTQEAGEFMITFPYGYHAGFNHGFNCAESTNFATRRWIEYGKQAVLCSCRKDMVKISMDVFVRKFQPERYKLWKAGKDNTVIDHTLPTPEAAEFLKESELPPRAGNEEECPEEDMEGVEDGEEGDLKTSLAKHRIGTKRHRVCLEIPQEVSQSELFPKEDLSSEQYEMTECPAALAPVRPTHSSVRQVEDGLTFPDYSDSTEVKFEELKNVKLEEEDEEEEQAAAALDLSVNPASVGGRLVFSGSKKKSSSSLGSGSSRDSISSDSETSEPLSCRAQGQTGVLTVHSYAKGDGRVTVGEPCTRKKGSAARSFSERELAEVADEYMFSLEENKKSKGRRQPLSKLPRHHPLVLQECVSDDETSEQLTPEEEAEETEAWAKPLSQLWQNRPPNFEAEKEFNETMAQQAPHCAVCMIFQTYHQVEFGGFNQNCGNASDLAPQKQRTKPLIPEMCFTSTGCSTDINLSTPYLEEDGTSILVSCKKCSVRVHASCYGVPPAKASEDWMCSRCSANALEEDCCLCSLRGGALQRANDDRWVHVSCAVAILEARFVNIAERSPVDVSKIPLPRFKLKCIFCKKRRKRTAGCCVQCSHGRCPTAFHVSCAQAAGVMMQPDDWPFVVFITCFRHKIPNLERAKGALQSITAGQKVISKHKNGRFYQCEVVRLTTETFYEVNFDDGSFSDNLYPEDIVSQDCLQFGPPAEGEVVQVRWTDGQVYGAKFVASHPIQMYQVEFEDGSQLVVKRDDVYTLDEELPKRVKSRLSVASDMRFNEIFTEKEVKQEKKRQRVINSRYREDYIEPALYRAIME
Experiment: Time-dependent treatment and withdrawal of inhibitor, fixed cell imaging of H3K9me3 and BrdU
Format: cell-based
Method: We exploited the reversible mode of action of the allele-specific inhibitor to gain further insights into the temporal regulation of rRNA expression by histone demethylation. We reasoned that withdrawal of the reversible inhibitor from the cell-culture medium would restore the activity of asKDM4A in a temporally defined manner (Figure 8A). HEK293T cells expressing the F185A variant carrying an HA tag were treated with 6B and fixed at various time points. H3K9me3 levels were quantified in HA-positive cells to ensure that only cells with asKDM4A were considered for analysis. Within 3 h of compound treatment, a robust level of H3K9me3 ensued (Figure 8B). Subsequently, the same cells were allowed to grow in inhibitor-free media and examined for histone demethylation by fixed cell imaging.
To investigate if the restoration of H3K9me3 demethylation is directly linked to rRNA activation, cells overexpressing asKDM4A were first treated with 6B for 3 h followed by compound removal and brief exposure to 5FU before being fixed at different time points for immunofluorescence imaging (Figure 8A,C). […] We recorded a steady recovery of BrdU signal, reaching its maximum within 4–5 h postwithdrawal (equivalent to no 6B treatment) (Figure 8C), consistent with reactivation of asKDM4A as observed above. A relatively sluggish 5FU incorporation into rRNA (Figure 8C), compared to the rapid histone demethylation (Figure 8B), is likely due to the time required to assemble active transcriptional machinery at the rRNA promoters following the removal of the silencing H3K9me3 mark. Achieving such precise temporal control of protein function would be challenging using genetic tools. Collectively, employing the mutant and cognate inhibitor pair, we mapped a highly dynamic signaling pathway linking KDM4A-mediated locus-specific histone demethylation with upregulation of rRNA expression to modulate downstream processes such as ribosomal assembly and protein synthesis. […]
19. Fixed cell immunofluorescence staining
Cells were grown on poly-D-lysine (Gibco A3890401) treated glass coverslips (ThermoScientific 12-545-81P) overnight and transfected the next day with 300 ng KDM4A WT/F185A using […] of lipofectamine 2000 (Invitrogen 11668019). The cells were incubated overnight and treated with indicated inhibitor at varying time points. When probing rRNA transcription, cells were incubated with 2 mM 5-Fluorouridine (Sigma F5130) for 15 minutes. Cells were washed three times with phosphate buffered saline (PBS) at pH 7.6 (Corning 21040CV), fixed with 2% paraformaldehyde in PBS (ThermoFisher AAJ19943K2) for 15 minutes at room temperature, washed with PBS three times, and permeabilized with 0.1% tritonX (Fisher BP151-100) in PBS for 15 minutes. Next, coverslips were blocked with 2% Bovine Serum Albumin (BSA Fisher BP1600-100) in PBS for 1 hour at room temperature, coverslips were incubated with primary antibody diluted in 0.5% BSA PBS (anti-H3K9me3: Cell Signaling Technology cat: 13969S host:rabbit 1:1000; anti-HA: Cell Signaling Technology host:mouse, cat: 2367S or host:rabbit, cat: […]
hour at room temperature, then incubated with secondary antibodies diluted in 0.5% BSA PBS (anti-mouse—488: Invitrogen host: goat, cat: A-11001 or anti-rabbit—cy3: Invitrogen host: goat, […]
cat: A10520, both dilutions 1:1000), between each step coverslips were washed five times with 0.5% BSA PBS. The nuclei were stained with Hoechst stain 0.01 mg/mL in H2O (Sigma B2883-25MG) for 30 seconds, washed with PBS and finally adhered to a slide with gelvatol. The cells were imaged at University of Pittsburgh Center for Biological Imaging on an Olympus Fluoview […]
20. Quantification of fixed-cell imaging data
TIF images obtained from confocal microscopy experiments were quantified in ImageJ. Images were converted to 8-bit images and then thresholded to remove background signal. All images within the same experiment used the same threshold values. For concentration dependent imaging […]

[1] = HEK293T cells expressing KDM4A-F185A, 6B for 3 h then withdrawal

time of compound treatment until a robust level of H3K9me3 ensued (HA-positive HEK293T cells expressing F185A): up to 3 h
5FU incorporation after compound withdrawal [1]: gradual increase in 5FU incorporation
H3K9me3 after compound withdrawal [1]: rapid H3K9me3 demethylation
time postwithdrawal until BrdU signal reached its maximum (after 3 h 6B treatment and removal, equivalent to no 6B treatment): 4 to 5 h
BrdU signal (5FU incorporation) (cells overexpressing asKDM4A treated with 6B for 3 h): significant decrease in BrdU signal
time after compound removal until asKDM4A regained its demethylase activity (inhibitor-free media, activity increased for up to 3 h): ≤ 1 h
Structure (SMILES): CC(C)CC(NC(=O)C(=O)OCc1cccc(C(F)(F)F)c1)C(=O)O [6B, L-Leu TFMB-ester NOG]
